Source: patent US10316017B2, “COT modulators and methods of use thereof” (Gilead Sciences, Inc., priority 2015, dated 2019)

What was measured:
[1] = biological target: T1, human Cot catalytic domain (30-397 amino acids) (Homo sapiens, UniProt P41279); assay: High Throughput Cot Biochemical Assay (KinEASE TR-FRET); details: Cot KinEASE TR-FRET (HTRF) biochemical assay, 400 μM ATP; read-out: IC50 HTRF
T1 construct: Purified recombinant human Cot catalytic domain (30-397 amino acids) was purchased from Cama Biosciences; purchased Cama Biosciences (so in the source)
T1 sequence (P41279 30-397): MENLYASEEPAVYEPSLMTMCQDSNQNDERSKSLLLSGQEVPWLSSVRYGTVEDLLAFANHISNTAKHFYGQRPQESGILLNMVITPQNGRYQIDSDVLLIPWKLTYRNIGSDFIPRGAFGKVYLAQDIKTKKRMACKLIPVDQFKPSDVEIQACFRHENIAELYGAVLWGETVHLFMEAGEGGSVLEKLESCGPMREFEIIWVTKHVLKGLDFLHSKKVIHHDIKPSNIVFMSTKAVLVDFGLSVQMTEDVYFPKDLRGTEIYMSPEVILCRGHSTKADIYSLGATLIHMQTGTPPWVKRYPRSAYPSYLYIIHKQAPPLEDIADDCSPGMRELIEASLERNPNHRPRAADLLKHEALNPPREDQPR
Summary of the method: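 Recombinant human Cot catalytic domain (aa 30-397), 5 nM, with 1 μM STK3 peptide and 400 μM ATP in MOPS pH 7.0 buffer with MgOAc, DTT, BSA, NP-40, glycerol, 0.1% DMSO. Phosphorylated XL665-peptide detected by Eu-[…] antibody TR-FRET.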

[2] = test system: TNFα production in LPS-stimulated human monocytes; assay: Cot Monocyte TNFα Cell Based Assay; details: Homo sapiens, Monocyte, TNFα in LPS-stimulated human monocytes; read-out: EC50 TNF
Method: Example 60: Cot Monocyte TNFα Cell Based Assay
The cell suspension was then plated at a density of 5,000 cells/well onto black 384 well Greiner clear bottom plates. Plates were pre-spotted with test compounds and serially diluted in DMSO where 200 nL/well were delivered using the Echo 550 acoustic liquid dispenser (Labcyte®) for a final DMSO concentration of 0.5%. Plated cells were treated with compound for 1 hour at 37° C. Cells were then stimulated with 50 pg/ml of LPS (Sigma) excluding outside columns of plate used for unstimulated cell control wells. Cells were incubated for an additional 4 hours at 37° C. Cells were then spun out of the media and 5 ul of sample were taken and analyzed for total TNFα content using the TR-FRET Human TNFα detection system (CisBio). This system utilizes two labeled antibodies (cryptate and XL665) that bind to two different epitopes of the TNFα molecule and produce FRET signal proportional to the concentration of TNFα in the sample. Detection antibodies are mixed 50:50 and 5 μL were dispensed into each well. Plates were covered with clear seals and incubated at room temp overnight. […] Percent of control was calculated as follows: % Control=100×(RatioSample−Ratio0% stimulation)/(Ratio100% Stimulation−Ratio0% Stimulation) where unstimulated cells (0% stimulation) were the negative control and stimulated cells (100% stimulation) were used as the positive control.

| Structure (SMILES) | IC50 [1] | EC50 [2] |
| --- | --- | --- |
| [2H][C@](Nc1cc(C(C)O)c2ncc(C#N)c(NCC(C)(C)C)c2c1)(c1ccc(F)cc1)c1cn(C2CC2)nn1 (some centres unmarked) [Compound 29] | 217 nM | > 1000 nM |
| [2H][C@](Nc1cc(C#C)c2ncc(C#N)c(N[C@H](CC)c3ccccc3)c2c1)(c1ccc(F)cc1)c1cn(C2CC2)nn1 [Compound 30] | 7210 nM | > 10000 nM |
| N#Cc1cnc2c(Cl)cc(N[C@@H](c3ccc(F)cc3)c3cn(C4CC4)nn3)cc2c1N[C@H](CCF)c1ccccc1 [Compound 32] | 5 nM | 78 nM |
| [2H]C(Nc1cc(Cl)c2ncc(C#N)c(NC(=O)C(C)(C)C)c2c1)(c1ccc(F)cc1)c1cn(C2CC2)nn1 (centres unmarked) [Compound 33] | 1620 nM | > 10000 nM |
| [2H]C(Nc1cc(Cl)c2ncc(C#N)c(N[C@H](CCN3CCOCC3)c3ccccc3)c2c1)(c1ccc(F)cc1)c1cn(C2CC2)nn1 (some centres unmarked) [Compound 34] | 13 nM | 192 nM |
| COCCN1CCC(n2cc([C@@H](Nc3cc(Cl)c4ncc(C#N)c(Nc5ccc(F)c(Cl)c5)c4c3)c3ccc(F)cc3)nn2)CC1 [Compound 35] | 15 nM | 229 nM |
| [2H]C(Nc1cc(Cl)c2ncc(C#N)c(N[C@H](CC)c3ccccc3)c2c1F)(c1cccc(C#N)c1)c1cn(C2CC2)nn1 (some centres unmarked) [Compound 36] | > 10000 nM | > 10000 nM |
| [2H][C@](Nc1cc(Cl)c2ncc(C#N)c(N[C@H](CC)c3ccccc3)c2c1)(c1cccc(C#N)c1)c1cnnn1C1CC1 [Compound 37] | 810 nM | > 1000 nM |
| CCN1CCC(n2cc([C@@H](Nc3cc(Cl)c4ncc(C#N)c(Nc5ccc(F)c(Cl)c5)c4c3)c3cccc(C(=O)N(C)C)c3)nn2)CC1 [Compound 41] | 1 nM | 74 nM |
| CC(C)(C)N1CCC(n2cc([C@@H](Nc3cc(Cl)c4ncc(C#N)c(Nc5ccc(F)c(Cl)c5)c4c3)c3cccc(C=O)c3)nn2)CC1 [Compound 42] | 5 nM | 138 nM |
| [2H][C@](Nc1cc(O)c2ncc(C#N)c(NCC(C)(C)C)c2c1)(c1ccc(F)cc1)c1cn(C2CC2)nn1 [Compound 43] | 1940 nM | > 10000 nM |
| [2H][C@](Nc1cc(Cl)c2ncc(C#N)c(Nc3cnc(F)c(F)c3)c2c1)(c1ccc(F)cc1)c1cn(CF)nn1 [Compound 44] | 53 nM | 902 nM |
| Cn1cc([C@@H](Nc2cc(Cl)c3ncc(C#N)c(Nc4cnc(F)c(F)c4)c3c2)c2ccccc2F)nn1 [Compound 45] | 10 nM | 877 nM |
| CC(C)(C)CNc1c(C#N)cnc2c(C#N)cc(N[C@@H](c3cccc(C(=O)N4CC(F)C4)c3)c3cn(C4CC4)nn3)cc12 [Compound 58] | 3 nM | 269 nM |
| CC(C)(C)CNc1c(C#N)cnc2c(C#N)cc(N[C@@H](c3cccc(C(N)=O)c3)c3cn(C4CC4)nn3)cc12 [Compound 59] | 1 nM | 612 nM |
| CC(C)(C)CNc1c(C#N)cnc2c(Br)cc(N[C@@H](c3cccc(C(=O)O)c3)c3cn(C4CC4)nn3)cc12 [Compound 60] | 17 nM | > 1000 nM |

| Structure (SMILES) | IC50 [1] | EC50 [2] |
| --- | --- | --- |
| [2H][C@](Nc1cc(Cl)c2ncc(C#N)c(N[C@H](CC)c3ccccc3)c2c1)(c1cccc(C#N)c1)c1cn(CC=C)nn1 [Compound 61] | 3 nM | 75 nM |
| [2H][C@](Nc1cc(-c2cnc(C)nc2)c2ncc(C#N)c(NCC(C)(C)C)c2c1)(c1ccc(F)cc1)c1cn(C2CC2)nn1 [Compound 62] | 29 nM | 447 nM |
| CC[C@@H](Nc1c(C#N)cnc2c(Cl)cc(N[C@H](c3cn(C4(C#N)CC4)nn3)c3ccccc3Cl)cc12)c1ccccc1 [Example 49, 8-chloro-6-(((S)-(2-chlorophenyl)(1-(1-cyanocyclopropyl)-1H-1,2,3-triazol-4-yl)methyl)amino)-4-(((R)-1-phenylpropyl)amino) quinoline-3-carbonitrile] | 26 nM | 330 nM |
| [2H][C@](Nc1cc(Cl)c2ncc(C#N)c(N[C@H](CCC#N)c3ccccc3)c2c1)(c1cccc(C#N)c1)c1cn(C(F)(F)CO)nn1 [Example 51, 8-chloro-4-(((R)-3-cyano-1-phenylpropyl)amino)-6-(((S)-(3-cyanophenyl) (1-(1,1-difluoro-2-hydroxyethyl)-1H-1,2,3-triazol-4-yl)methyl-d)amino) quinoline-3-carbonitrile] | 1 nM | 57 nM |
| CC(C)(C)CNc1c(C#N)cnc2c(Br)cc(N[C@@H](c3cccc(C(=O)N4CC(O)C4)c3)c3cn(C4CC4)nn3)cc12 [Example 52, (S)-8-bromo-6-(((1-cyclopropyl-1H-1,2,3-triazol-4-yl) (3-(3-hydroxyazetidine-1-carbonyl)phenyl)methyl)amino)-4-(neopentylamino) quinoline-3-carbonitrile] | 4 nM | > 1000 nM |
| CC(C)(C)CNc1c(C#N)cnc2c(Br)cc(N[C@@H](c3cccc(C(=O)N4CC(F)C4)c3)c3cn(C4CC4)nn3)cc12 [Example 53, (S)-8-bromo-6-(((1-cyclopropyl-1H-1,2,3-triazol-4-yl)(3-(3-fluoroazetidine-1-carbonyl)phenyl)methyl)amino)-4-(neopentylamino) quinoline-3-carbonitrile] | 5 nM | 163 nM |
| CC(C)(C)CNc1c(C#N)cnc2c(Br)cc(N[C@@H](c3cccc(C(N)=O)c3)c3cn(C4CC4)nn3)cc12 [Example 54, (S)-3-(((8-bromo-3-cyano-4-(neopentylamino)quinolin-6-yl)amino) (1-cyclopropyl-1H-1,2,3-triazol-4-yl)methyl)benzamide] | 2 nM | 267 nM |
| CNC(=O)c1cccc([C@H](Nc2cc(C#N)c3ncc(C#N)c(NCC(C)(C)C)c3c2)c2cn(C3CC3)nn2)c1 [Example 55, (S)-3-((1-cyclopropyl-1H-1,2,3-triazol-4-yl) ((3,8-dicyano-4-(neopentylamino)quinolin-6-yl)amino)methyl)-N-methylbenzamide] | 2 nM | 414 nM |
| CC(C)(C)CNc1c(C#N)cnc2c(C#N)cc(N[C@@H](c3cccc(C(=O)N4CC(F)(F)C4)c3)c3cn(C4CC4)nn3)cc12 [Example 56, (S)-6-(((1-cyclopropyl-1H-1,2,3-triazol-4-yl)(3-(3,3-difluoroazetidine-1-carbonyl)phenyl)methyl)amino)-4-(neopentylamino) quinoline-3,8-dicarbonitrile] | 3 nM | 184 nM |
| CC(C)(C)CNc1c(C#N)cnc2c(C#N)cc(N[C@@H](c3cccc(C(=O)N4CC(O)C4)c3)c3cn(C4CC4)nn3)cc12 [Example 57, (S)-6-(((1-cyclopropyl-1H-1,2,3-triazol-4-yl) (3-(3-hydroxyazetidine-1-carbonyl)phenyl)methyl)amino)-4-(neopentylamino) quinoline-3,8-dicarbonitrile] | 3 nM | > 1000 nM |
| [2H][C@](Nc1cc(-c2cnco2)c2ncc(C#N)c(NCC(C)(C)C)c2c1)(c1ccc(F)cc1)c1cn(C2CC2)nn1 [Example 63, (S)-6-(((1-cyclopropyl-1H-1,2,3-triazol-4-yl)(4-fluorophenyl)methyl-d)amino)-4-(neopentylamino)-8-(oxazol-5-yl)quinoline-3-carbonitrile] | 213 nM | > 1000 nM |
| [2H][C@](Nc1cc(Cl)c2ncc(C#N)c(NC3CCOC(C)(C)C3)c2c1)(c1ccc(F)cc1)c1cn(C2CC2)nn1 (stereo partly drawn) [Example 64, 8-chloro-6-(((S)-(1-cyclopropyl-1H-1,2,3-triazol-4-yl)(4-fluorophenyl)methyl-d)amino)-4-((2,2-dimethyltetrahydro-2H-pyran-4-yl)amino) quinoline-3-carbonitrile] | 106 nM | > 1000 nM |
| N#CCC[C@@H](Nc1c(C#N)cnc2c(Cl)cc(N[C@H](c3cn(C4COC4)nn3)c3ccccc3Cl)cc12)c1ccccc1 [Example 65, 8-chloro-6-(((S)-(2-chlorophenyl)(1-(oxetan-3-yl)-1H-3-triazol-4-yl)methyl)amino)-4-(((R)-3-cyano-1-phenylpropyl)amino) quinoline-3-carbonitrile] | 3 nM | 95 nM |
| N#CCC[C@@H](Nc1c(C#N)cnc2c(Cl)cc(N[C@H](c3cn(CC#N)nn3)c3ccccc3Cl)cc12)c1ccccc1 [Example 66, 8-chloro-6-(((S)-(2-chlorophenyl)(1-(cyanomethyl)-1H-1,2,3-triazol-4-yl)methyl)amino)-4-(((R)-3-cyano-1-phenylpropyl)amino) quinoline-3-carbonitrile] | 5 nM | 96 nM |
| N#CCC[C@@H](Nc1c(C#N)cnc2c(Cl)cc(N[C@H](c3cn(C(F)(F)CO)nn3)c3ccccc3Cl)cc12)c1ccccc1 [Example 67, 8-chloro-6-(((S)-(2-chlorophenyl)(1-(1,1-difluoro-2-hydroxyethyl)-1H-1,2,3-triazol-4-yl)methyl)amino)-4-(((R)-3-cyano-1-phenylpropyl)amino) quinoline-3-carbonitrile] | 2 nM | 41 nM |
